In general, Km refers to the substrate concentration at which the rate is half of its maximum. The term kcat denotes the number of substrate molecules converted per active site and unit of time at saturation.

This is an account of results in US11406719B2, “Dichromic fluorescent compounds” (Washington University, priority 2008, dated 2022).

Like-named read-outs stand apart in the source and are kept apart here. Marks after values point to notes of the source that are not given here.

The nature of data set [1]: Fluorescence lifetime by time correlated single photon counting (TCSPC). The format is physicochemical. The following applies: for Lifetime at 700 nm (ns): excitation 650 nm, emission 700 nm. How it is done:
Fluorescence lifetime (FLT) was measured using time correlated single photon counting (TCSPC) technique with excitation sources NanoLed® (HORIBA Jobin Yvon Inc.) at 700 nm and 773 nm and impulse repetition rate of 1 MHz at 90° to a R928P detector (Hamamatsu Photonics, Japan). The detector was set to either 750 nm (for Nanoled 700 nm) or for 820 nm (for Nanoled 773 nm) with a 20 nm bandpass. The electrical signal was amplified by TB-02 pulse amplifier (HORIBA Jobin Yvon Inc.) and the amplified signal was fed to the constant fraction discriminator CFD (Philips, Netherlands). The first detected photon represented the start signal by the time-to-amplitude converter (TAC) and the excitation pulse triggered the stop signal. The multi-channel analyzer (MCA) recorded repetitive start-stop signals from the TAC and generated a histogram of photons as a function of time-calibrated channels (6.878 ps/channel) until the peak signal reached 10,000 counts. The lifetime was recorded on a 50 ns scale. The instrument response function was obtained by using Rayleigh scatter of Ludox-40 (Sigma-Aldrich, St. Louis, Mo.) (0.03% in Milli-Q water) in a quartz cuvette at either 700 nm or 773 nm emission. DAS6 v6.1 decay analysis software (HORIBA Jobin Yvon Inc.) was used for lifetime calculations. The goodness of fit was judged by χ^2 values and Durbin-Watson parameters and visual observations of fitted line, residuals and autocorrelation function

Data set [2] can be described thus: Steady-state absorption and fluorescence properties (spectra, quantum yield, 700/800 nm emission). Format: physicochemical. To be noted: for fluorescence quantum yield: relative to ICG. How it is done:
The polymethine dyes and their derivatives were dissolved in […] of DMSO as stock solutions. To prevent inner effect in the fluorescent measurements, aliquots […] were diluted with the solvent of interest until the absorbance at the excitation wavelength was 0.15. UV-Vis spectra were obtained on Beckman Coulter DU 640 UV-Vis spectrometer (Beckman Coulter, Inc., Fullerton, Calif.). Emission spectra were recorded on a Fluorolog-3 spectrofluorometer (HORIBA Jobin Yvon Inc., Edison, N.J.).
Fluorescent spectra were recorded by using 620 nm and 720 nm excitation wavelengths. Fluorescent quantum yield was measured at 720 nm with slits width of 5 nm for both excitation and emission. The fluorescence quantum yield of ICG in DMSO (Ψ=0.12) was used as a reference standard. All measurements were conducted at room temperature. Excitation scans were performed in the range of 500-720 nm with monitoring at 735 nm fluorescence intensity, and 600-815 nm with monitoring at 830 nm. Excitation scans were corrected by lamp intensity using the equation F=S/R.
The ratios of the 700 nm and 800 nm emission peaks were examined in different environments and simulated dilute conditions (e.g., binding to albumin). For this, the fluorescence behavior of compound 3 was determined in different solvents (i.e., methanol, water, and DMSO), pH levels (i.e., 2.5 and 10), and in the presence of albumin (which binds the dyes in its drug binding pocket). The spectral analysis was conducted as described above in Example 2. Spectra at pH 2.5 and 10.0 were obtained by titrating 20% DMSO/water solution with diluted aqueous HCl and NaOH.

The conditions of data set [3]: DMSO; excitation 773 nm; emission 820 nm; from Berezin et al., 2007; cited from earlier work.
A short description of data set [4]: In vivo dichromic fluorescence imaging of mouse ears. On the set-up: species or system nude mouse. The following applies: 2 nmol intravenously. From the text: To assess the retention of dichromic fluorescence in vivo, 2 nmol of symmetrical ICG (compound 2) and nonsymmetrical cypate-S (compound 3) were each injected intravenously in a nude mouse. Mouse ears were imaged with a Li-Cor Odyssey system at two excitation (680 nm and 780 nm) and emission (700 and 800 nm) channels. […] Thus, the dual fluorescence contrast mechanism is tenable in vivo.

For data set [5] the following is noted: cited from earlier work.
For a further data set, the system named is casein kinase II. Kind of data set: Kinase-Glo Luminescent Kinase Assay. The format is cell-based. The following applies: A549 cells. As for the experimental part: The following example was designed to further explore the use of cypate diserine (6) to monitor the activity of endogenous kinases. A549 cells (which express casein kinase II) were incubated with a standard casein kinase II peptide substrate or compound 6 (which is not specific for casein kinase II). Kinase activity was measured with the Kinase-Glo Luminescent Kinase Assay Platform (Promega Corp., Madison, Wis.) per the manufacturer's instructions. This assay measures free ATP in the reaction mixture. As phosphorylation increases, the levels of ATP decrease, and consequently, luminescence is inversely proportional to kinase activity.
(Kinase-Glo measures the ATP left after a reaction by luminescence.)

For a further data set, the system named is A549 cells. Description: Two-channel imaging of fluorescence enhancement of A549 cells. The following applies: 1 μM. Format: cell-based, human. As for the experimental part: It was hypothesized that since cypate diserine could be phosphorylated in cells, it is possible that the initial phosphorylation of one serine (as indicated by an increase in the 700 nm channel) could be followed by phosphorylation of the second serine. […] To test this notion, A549 cells were incubated with of 1 μM of compound 6.

The target in data set [6] is T1, caspase-3 (Homo sapiens, UniProt P42574).
T1 sequence (P42574 29-175 limits assumed): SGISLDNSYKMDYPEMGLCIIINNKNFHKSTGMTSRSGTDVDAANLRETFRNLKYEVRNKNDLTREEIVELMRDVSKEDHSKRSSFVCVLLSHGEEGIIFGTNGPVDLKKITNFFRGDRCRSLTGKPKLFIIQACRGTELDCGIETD
T1 sequence (P42574 176-277 limits assumed): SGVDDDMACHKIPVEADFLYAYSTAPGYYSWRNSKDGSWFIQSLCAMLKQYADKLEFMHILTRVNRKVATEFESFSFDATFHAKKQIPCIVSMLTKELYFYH
On the set-up: purchased CalBiochem. The following applies: read-out: KM of the standard; cited from earlier work.

In data set [7] the target is T1, caspase-3. Kind of data set: In vivo imaging of caspase-3 activity in mouse ears. Set-up: species or system nude mouse. The following applies: 2 nmol intravenously; caspase-3-injected ear relative to saline-injected ear. As for the experimental part: To assess the NIR optical imaging of caspase-3 activity, 2 nmol of the pre-quenched (FRET) cypate-DEVD (SEQ ID NO:4) probe was injected intravenously in a nude mouse, followed by intradermal injection of caspase-3 solution (right pinna) or saline (left pinna). This approach provides positive and negative controls in one set of experiments. Mouse ears were imaged with Li-Cor Odyssey single-channel (805 nm) NIR imaging system (Li-Cor Biosciences, Lincoln, Neb.). Images were captured before treatment, after injection of a probe and after intradermal injection of caspase-3 in the ear.

In data set [8] the target is T1, caspase-3. Description: Enzyme kinetics of NIR caspase-3 probe. Format: biochemical. Set-up: purchased CalBiochem. To be noted: non-linear fit; 37° C. As for the experimental part: To examine the kinetics, a caspase-3 substrate was prepared using the standard FRET method where the tetrapeptide Asp-Glu-Val-Asp (DEVD—SEQ ID NO:4) was flanked by two cypate dyes (cypate-DEVD (SEQ ID NO:4) probe). Enzyme assays were performed with a fluorometer by using commercially available recombinant caspase-3 (CalBiochem). An aliquot of the cypate-DEVD (SEQ ID NO:4) probe (substrate concentrations ranged from 70 nM to 100 μM) was dissolved in DMSO and added to a buffer comprising 10 mM PIPES, pH 7.4, 2 mM EDTA, 0.1% CHAPS, and 5 mM DTT. Five units of the enzyme were added, and the assay was performed at 37° C. A control experiment under the same conditions but with no enzyme was conducted at the same time. The apparent Km for the cypate-DEVD (SEQ ID NO:4) probe for caspase-3 was calculated with the Cheng-Prusoff equation: […], where [S] is the concentration of substrate and Ki is the published inhibitory constant of DEVD (SEQ ID NO:4)-CHO. To generate EC50 values, initial rates were determined from the linear portion of substrate hydrolysis and were plotted against log-inhibitor concentration (DEVD (SEQ ID NO:4)-CHO). The apparent kcat values were calculated using the equation kcat=V(Km+[S])/[Et][S], where [S] is the concentration of substrate, [E] is the concentration of enzyme, and Vis the initial rate of cleavage. […]

As to `CC1(C)C(/C=C/C=C/C=C/C=C2/N(CCC(=O)O)c3ccc4ccccc4c3C2(C)C)=[N+](CCC(=O)[O-])c2ccc3ccccc3c21` [Compound 1, cypate, reference compound], the “Lifetime at 700 nm (ns)” value in data set [1] (DMSO) is recorded as “Weak signal”. Further, the “fluorescence lifetime at 800 nm” value in [1] (in DMSO) is on record as 0.86 ns. Moreover, the “contribution of the 700 nm emission in the overall fluorescence spectra” value (“contribution of the 700 nm emission” below) in data set [2] was found to be 18%. In addition, in [3], the “Lifetime at 800 nm (ns)” value was 0.87^c ns.

`CC1(C)C(/C=C/C=C/C=C/C=C2/N(CCCCS(=O)(=O)O)c3ccc4ccccc4c3C2(C)C)=[N+](CCCCS(=O)(=O)[O-])c2ccc3ccccc3c21` [Compound 2, indocyanine green, reference compound]: the “Lifetime at 700 nm (ns)” value in [1] (DMSO) was 1.50^d ns. For the same compound, the “contribution of the 700 nm emission” value in data set [2] is on record as 24%. Moreover, in [4], the “visibility of blood vessels in the 700 and 800 nm channels” value is on record as “showed the blood vessels only at the 800 nm channel”. For the same compound, the “Lifetime at 800 nm (ns)” value in [3] is 0.97^c ns. Further, the “fluorescence quantum yield (reference standard)” value in data set [5] (in DMSO) was 0.12. In addition, the “fluorescence quantum yield (reference)” value in [5] (in methanol) was 0.090.

For the compound `CC1(C)C(/C=C/C=C/C=C/C=C2\N(CCC(=O)NC(CO)C(=O)O)c3ccc4ccccc4c3C2(C)C)=[N+](CCC(=O)NC(CO)C(=O)O)c2ccc3ccccc3c21` (stereo not drawn) [Compound 6, di-serine cypate], in data set [2] (methanol), the molar absorption coefficient result is on record as “about 220,000 M^−1 cm^−1”, the “ratio of the 700/800 nm emission peaks” value came out at 0.36 and the fluorescence quantum yield is listed as 0.059. The “luminescence (inversely proportional to kinase activity)” value in the data set with casein kinase II is recorded as “concentration-dependent decreases in luminescence”. In addition, in the data set with A549 cells (5 and 15 minutes), the “fluorescence in the 700 nm and 800 nm emission channels” value is “early fluorescence increase in the 700 nm emission channel”. Moreover, the “fluorescence in the 700 nm and 800 nm emission channels” value in the data set on A549 cells (30 and 45 minutes) is given as “fluorescence enhancement in both channels”.

Turning to `CC1(C)C(/C=C/C=C/C=C/C=C2\N(CCC(=O)NC(COP(=O)(O)O)C(=O)O)c3ccc4ccccc4c3C2(C)C)=[N+](CCC(=O)NC(CO)C(=O)O)c2ccc3ccccc3c21` (stereo not drawn) [Compound 7, monophosphoserine/serine cypate derivative], in data set [2] (methanol), the “increase of the 700/800 nm ratio relative to symmetrical compound 6” value is 7 fold, the molar absorption coefficient result is given as “about 220,000 M^−1 cm^−1”, the “ratio of the 700/800 nm emission peaks” value is recorded as 2.5 and the fluorescence quantum yield is given as 0.057.

Consider Ac-DEVD-pNA [Ac-DEVD (SEQ ID NO:4)-pNA], for which, in the data set with caspase-3 [6], the Km is 11 µM.

On to “cypate-DEVD (SEQ ID NO:4) probe: caspase-3 FRET substrate: tetrapeptide Asp-Glu-Val-Asp flanked by two cypate dyes”, for which the “magnitude and area of increase of fluorescence intensity (805 nm)” value in the data set with caspase-3 [7] is “significantly greater in the caspase-3-injected ear”. For the same compound, in the data set with caspase-3 [8], the Km was found to be 15 ± 3 µM and the kcat was 1.02 ± 0.06 s⁻¹.

Take cypate-NH2 [Compound 4]: the “Lifetime at 700 nm (ns)” value in data set [1] (DMSO) is listed as 1.40 ns. Also, the “Lifetime at 800 nm (ns)” value in [1] (DMSO, excitation 773 nm, emission 820 nm) was found to be 0.90 ns. Also, the “contribution of the 700 nm emission” value in data set [2] is given as 82%.
